Results reported in patent US20250313563A1, “GLYCOGEN SYNTHASE KINASE 3 INHIBITORS AND USES THEREOF” (The Broad Institute, Inc., priority 2022, published 2025).
Read-outs that look alike come from different tables or passages of the source.

Tests used:
[1] = target: GSK3b (GST-full length GSK3b) (Homo sapiens (Human), UniProt P49841); assay: GSK3b TR-FRET kinase assay; type: biochemical
Method in brief: (§1)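 1 nM GST-GSK3α/β + cpd, 30 min preinc; add 200 nM biotin-pS645 GS(631-650) peptide + ATP (α 4 μM / β 2 μM, or 1 mM); 100 min RT, 50 mM Tris pH 7.5, 20 mM MgCl2, 1% DMSO; EDTA stop; SA-d2/Tb-pSer641 Ab 60 min; 665/615 ratio → IC50.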

[2] = target: GSK3α (GST-full length GSK3α) (Homo sapiens (Human), UniProt P49840); assay: GSK3α TR-FRET kinase assay; type: biochemical
Chain of GSK3α (GST-full length GSK3α) (P49840 whole entry): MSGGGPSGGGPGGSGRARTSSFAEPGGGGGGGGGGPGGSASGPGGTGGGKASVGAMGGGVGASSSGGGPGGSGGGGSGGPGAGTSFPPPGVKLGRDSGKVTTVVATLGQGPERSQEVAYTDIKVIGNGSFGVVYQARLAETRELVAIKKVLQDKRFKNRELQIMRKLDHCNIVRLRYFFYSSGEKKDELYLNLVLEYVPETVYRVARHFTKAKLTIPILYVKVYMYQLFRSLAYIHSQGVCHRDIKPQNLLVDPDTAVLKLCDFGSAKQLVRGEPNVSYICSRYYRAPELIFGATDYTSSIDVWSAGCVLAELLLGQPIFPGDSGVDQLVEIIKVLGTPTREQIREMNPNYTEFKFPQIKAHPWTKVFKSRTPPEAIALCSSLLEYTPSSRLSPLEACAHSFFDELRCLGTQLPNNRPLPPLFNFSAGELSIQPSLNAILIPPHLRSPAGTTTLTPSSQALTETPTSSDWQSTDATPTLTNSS
Method in brief: as §1

[3] = 1 nM GSK3b, 2 μM ATP, 30 minute preincubation, Table 16, read-out: GSK3-B TR-FRET BIOCHEMICAL (TR-FRET)
[4] = 1 nM GSK3α, 4 μM ATP, 30 minute preincubation, Table 16, read-out: GSK3-A TR-FRET BIOCHEMICAL (TR-FRET)
[5] = 1 nM GSK3b, 2 μM ATP, 30 minute preincubation, geometric mean, read-out: GSK3-B TR-FRET BIOCHEMICAL (TR-FRET), GMean, IC50
[6] = 1 nM GSK3α, 4 μM ATP, 30 minute preincubation, geometric mean, read-out: GSK3-A TR-FRET BIOCHEMICAL (TR-FRET), GMean, IC50
[7] = 1 nM GSK3b, 2 μM ATP, 30 minute preincubation, Table 16, read-out: GSK3-B TR-FRET BIOCHEMICAL (TR-FRET), IC50
[8] = 1 nM GSK3α, 4 μM ATP, 30 minute preincubation, Table 16, read-out: GSK3-A TR-FRET BIOCHEMICAL (TR-FRET), IC50
[9] = 1 nM GSK3b, 2 μM ATP, 30 minute preincubation, read-out: GSK3-B TR-FRET BIOCHEMICAL (TR-FRET), IC50
[10] = 1 nM GSK3α, 4 μM ATP, 30 minute preincubation, read-out: GSK3-A TR-FRET BIOCHEMICAL (TR-FRET), IC50
[11] = read-out: GSK3-B (TR-FRET 1 mM ATP), GMean, IC50, 1 mM ATP, geometric mean
[12] = read-out: GSK3-A (TR-FRET 1 mM ATP), GMean, IC50, 1 mM ATP, geometric mean

Chain of GSK3b (GST-full length GSK3b) (P49841 whole entry): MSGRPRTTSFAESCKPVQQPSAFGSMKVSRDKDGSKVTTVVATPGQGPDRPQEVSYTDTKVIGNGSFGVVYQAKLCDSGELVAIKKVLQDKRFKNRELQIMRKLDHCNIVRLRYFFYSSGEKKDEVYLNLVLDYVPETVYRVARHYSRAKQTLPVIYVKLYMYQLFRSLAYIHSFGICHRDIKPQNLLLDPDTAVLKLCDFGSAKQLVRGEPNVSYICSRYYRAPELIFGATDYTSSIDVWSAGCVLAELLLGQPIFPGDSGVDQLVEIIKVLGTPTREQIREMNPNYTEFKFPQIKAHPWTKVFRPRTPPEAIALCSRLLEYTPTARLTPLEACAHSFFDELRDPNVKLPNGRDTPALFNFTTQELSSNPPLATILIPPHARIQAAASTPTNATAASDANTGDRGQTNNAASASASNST

Structure (SMILES) | IC50 [1, 3] | IC50 [2, 4] | IC50 [1, 7] | IC50 [2, 8] | also measured
CC[C@]1(c2cccc(OCC(F)F)c2)C2=C(CC(C)(C)CC2=O)Nc2n[nH]cc21 [Compound 949113] | > 5000 nM | 1000 to 5000 nM | – | – | –
CCC1(c2cccc(-c3cn(C)nc3C)c2)C2=C(CC(C)(C)NC2=O)Nc2n[nH]c(Cl)c21 (stereo not drawn) [Compound 948768] | – | – | – | – | IC50 [1, 5]: ≤ 100 nM; IC50 [2, 6]: ≤ 100 nM
CCC1(c2cccc(-c3cn(C)nc3C)c2)C2=C(CC(C)(C)N(C)C2=O)Nc2n[nH]cc21 (stereo not drawn) [Compound 948304] | – | – | – | – | IC50 [1, 5]: ≤ 100 nM; IC50 [2, 6]: ≤ 100 nM
CCC1(c2cccc(-c3cc(C(C)C)nn3C)c2)C2=C(CC(C)(C)NC2=O)Nc2n[nH]cc21 (stereo not drawn) [Compound 951842] | – | – | 1000 to 5000 nM | 100 to 1000 nM | –
CC1(C)CC(=O)C2=C(C1)Nc1n[nH]cc1C21CCN(S(=O)(=O)c2cccc3c2OCCO3)CC1 [Compound 947464] | – | – | – | – | IC50 [1, 9]: ≤ 100 nM; IC50 ([1]; GSK3-B (TR-FRET 1 mM ATP), GMean, IC50, 1 mM ATP, geometric mean): 100 to 1000 nM; IC50 [2, 10]: ≤ 100 nM; IC50 ([2]; GSK3-A (TR-FRET 1 mM ATP), GMean, IC50, 1 mM ATP, geometric mean): ≤ 100 nM
CCC1(c2cccc(C3CCOC(C)(C)C3)c2)C2=C(CC(C)(C)CC2=O)Nc2n[nH]cc21 (stereo not drawn) [Compound 912088] | – | – | > 5000 nM | 100 to 1000 nM | –
CCC1(c2cccc(-c3cnn(C)c3)c2)C2=C(CC(C)(C)NC2=O)Nc2n[nH]cc21 (stereo not drawn) [Compound 943912] | – | – | – | – | IC50 [1, 9]: 1000 to 5000 nM; IC50 [2, 10]: ≤ 100 nM
CC1(C)CC(=O)C2=C(C1)Nc1n[nH]cc1C2(C)c1cccc(-c2ccncc2)c1 (stereo not drawn) [Compound 790730] | – | – | – | – | IC50 [1, 5]: 100 to 1000 nM; IC50 [2, 6]: ≤ 100 nM
Cn1cc([C@H]2CC[C@@]3(CC2)C2=C(CC(C)(C)CC2=O)Nc2n[nH]cc23)cn1 [Compound 949322] | 1000 to 5000 nM | 100 to 1000 nM | – | – | –
CC[C@]1(c2cccc(-c3ccncc3F)c2)C2=C(CC(C)(C)NC2=O)Nc2n[nH]cc21 [Compound 947869] | – | – | – | – | IC50 [1, 5]: ≤ 100 nM; IC50 [1, 11]: 1000 to 5000 nM; IC50 [2, 6]: ≤ 100 nM; IC50 [2, 12]: ≤ 100 nM
CC1(C)CC(=O)C2=C(C1)Nc1n[nH]cc1C21CCN(S(=O)(=O)c2cnc3ccccn23)CC1 [Compound 947610] | ≤ 100 nM | ≤ 100 nM | – | – | –
CC1(C)CC(=O)C2=C(C1)Nc1n[nH]cc1C21CN(C(=O)c2ccccc2)C1 [Compound 893315] | – | – | > 5000 nM | > 5000 nM | –
CC[C@@]1(c2cccc(C(F)(F)F)c2)C2=C(CCN(CCOC)C2=O)Nc2n[nH]cc21 [Compound 949599] | – | – | 100 to 1000 nM | 100 to 1000 nM | –
CC[C@]1(c2ccccc2)C2=C(Nc3n[nH]cc31)[C@@H](C)C[C@@H](C)C2=O [Compound 909217] | – | – | 1000 to 5000 nM | 100 to 1000 nM | –
CC1(C)CC(=O)C2=C(C1)Nc1n[nH]c(CCC(F)(F)F)c1C21CCc2c(F)cccc21 (stereo not drawn) [Compound 874323] | – | – | – | – | IC50 [1, 5]: 1000 to 5000 nM; IC50 [2, 6]: 1000 to 5000 nM
CC1(C)CC(=O)C2=C(C1)Nc1n[nH]cc1C21COC2(CN(C(=O)C3(C)CC(F)C3)C2)C1 (stereo not drawn) [Compound 947271] | – | – | – | – | IC50 [1, 9]: 100 to 1000 nM; IC50 [2, 10]: ≤ 100 nM
CCc1cccc(N(C)c2cccc([C@]3(CC)C4=C(CC(C)(C)CC4=O)Nc4n[nH]cc43)c2)n1 [Compound 945726] | > 5000 nM | 1000 to 5000 nM | – | – | –
CC1(C)CC(=O)C2=C(C1)Nc1n[nH]cc1C21CCN(S(=O)(=O)c2ccc(Cl)c(Cl)c2)CC1 [Compound 945660] | ≤ 100 nM | ≤ 100 nM | – | – | –
CC1(C)CC(=O)C2=C(C1)Nc1n[nH]cc1C21CN(S(=O)(=O)CC2CC2)C1 [Compound 929440] | ≤ 100 nM | ≤ 100 nM | – | – | –
CC1(C)CC(=O)C2=C(C1)Nc1n[nH]cc1C21CN(CC2CCCC2)C1 [Compound 943914] | – | – | > 5000 nM | > 5000 nM | –

Structure (SMILES) | IC50 [1, 3] | IC50 [2, 4] | IC50 [1, 7] | IC50 [2, 8] | also measured
CC[C@@]1(c2cccc(C(F)(F)F)c2)C2=C(CC(C)(C)C2=O)Nc2n[nH]cc21 [Compound 950272] | – | – | 100 to 1000 nM | ≤ 100 nM | –
CC[C@@]1(c2ccccc2)C2=C(C[C@@H](c3ccccc3)CC2=O)Nc2n[nH]cc21 [Compound 791265] | – | – | – | – | IC50 [1, 5]: > 5000 nM; IC50 [2, 6]: 1000 to 5000 nM
CCC1(c2cccc(-c3ccnn3C)c2)C2=C(CC(C)(C)CC2=O)Nc2n[nH]cc21 (stereo not drawn) [Compound 911992] | – | – | ≤ 100 nM | ≤ 100 nM | IC50 [1, 11]: 100 to 1000 nM; IC50 [2, 12]: ≤ 100 nM
CC1(C)CC(=O)C2=C(C1)Nc1n[nH]cc1C21CCN(S(=O)(=O)c2cnn(-c3ccccc3)c2)CC1 [Compound 947904] | ≤ 100 nM | ≤ 100 nM | – | – | –
CCC1(c2cccc(N3CC(C)C(C)C3)c2)C2=C(CC(C)(C)CC2=O)Nc2n[nH]cc21 (stereo not drawn) [Compound 918326] | – | – | 100 to 1000 nM | 100 to 1000 nM | –
CCC1(c2cccc(-c3ccncc3F)c2)C2=C(CC(C)(C)NC2=O)Nc2n[nH]c(F)c21 (stereo not drawn) [Compound 949651] | – | – | ≤ 100 nM | ≤ 100 nM | IC50 [1, 11]: > 5000 nM; IC50 [2, 12]: 100 to 1000 nM
CC[C@@]1(c2cccc(C(F)(F)F)c2)C2=C(CCN(c3ccc(F)cc3)C2=O)Nc2n[nH]cc21 [Compound 948224] | – | – | – | – | IC50 [1, 5]: 100 to 1000 nM; IC50 [2, 6]: ≤ 100 nM
CCC1(c2cccc(-c3ccnn3C)c2)C2=C(CC(C)(C)CC2=O)Nc2n[nH]c(C(F)(F)F)c21 (stereo not drawn) [Compound 945531] | ≤ 100 nM | ≤ 100 nM | – | – | IC50 [1, 11]: 100 to 1000 nM; IC50 [2, 12]: ≤ 100 nM
COc1cccc(S(=O)(=O)N2CC[C@]3(C2)C2=C(CC(C)(C)CC2=O)Nc2n[nH]cc23)c1 [Compound 943486] | ≤ 100 nM | ≤ 100 nM | – | – | –
CC[C@]1(c2cccc(N(C)c3cccc(OC)n3)c2)C2=C(CC(C)(C)CC2=O)Nc2n[nH]cc21 [Compound 932666] | 100 to 1000 nM | ≤ 100 nM | – | – | –
CC1(C)CC(=O)C2=C(C1)Nc1n[nH]cc1C21CCN(S(=O)(=O)c2ccc(F)c(F)c2)CC1 [Compound 948119] | ≤ 100 nM | ≤ 100 nM | – | – | –
CCC1(c2cccc(-c3ccncc3F)c2)C2=C(CC(C)(C)NC2=O)Nc2n[nH]c(F)c21 (stereo not drawn) [Compound 948999] | – | – | – | – | IC50 [1, 5]: 100 to 1000 nM; IC50 [2, 6]: ≤ 100 nM
CCC1(c2cccc(N3CCCCC3)c2)C2=C(CC(C)(C)NC2=O)Nc2n[nH]c(C(F)(F)F)c21 (stereo not drawn) [Compound 949183] | – | – | – | – | IC50 [1, 5]: ≤ 100 nM; IC50 [1, 11]: 100 to 1000 nM; IC50 [2, 6]: ≤ 100 nM; IC50 [2, 12]: ≤ 100 nM
CCC1(c2cccc(C(F)(F)F)c2)C2=C(CC3(CCNC3=O)CC2=O)Nc2n[nH]cc21 (stereo not drawn) [Compound 950331] | > 5000 nM | 100 to 1000 nM | – | – | –
CC[C@]1(c2cccc(-c3cnc4n3CCCC4)c2)C2=C(CC(C)(C)CC2=O)Nc2n[nH]cc21 [Compound 945607] | 100 to 1000 nM | ≤ 100 nM | – | – | IC50 [1, 11]: > 5000 nM; IC50 [2, 12]: 1000 to 5000 nM
CCC1(c2cccc(-c3cc(C)nn3C)c2)C2=C(CC(C)(C)C2=O)Nc2n[nH]cc21 (stereo not drawn) [Compound 950818] | – | – | 1000 to 5000 nM | 100 to 1000 nM | –
CNC(=O)C1CCC2(CC1)C1=C(CC(C)(C)CC1=O)Nc1n[nH]cc12 (stereo not drawn) [Compound 945397] | 100 to 1000 nM | 100 to 1000 nM | – | – | –
CCC1(c2cccc(N(C)c3cccnn3)c2)C2=C(CC(C)(C)CC2=O)Nc2n[nH]cc21 (stereo not drawn) [Compound 911975] | – | – | ≤ 100 nM | ≤ 100 nM | IC50 [1, 11]: 1000 to 5000 nM; IC50 [2, 12]: 100 to 1000 nM
CCC1(c2cccc(-c3cc(C)nnc3C)c2)C2=C(CC(C)(C)NC2=O)Nc2n[nH]c(C(F)(F)F)c21 (stereo not drawn) [Compound 949910] | – | – | ≤ 100 nM | ≤ 100 nM | –
CCC1(c2cccc(C(F)(F)F)c2)C2=C(CC(C(C)(C)C)NC2=O)Nc2n[nH]cc21 (stereo not drawn) [Compound 945923] | – | – | – | – | IC50 [1, 9]: > 5000 nM; IC50 [2, 10]: > 5000 nM
